Measurements as given in patent US20230240964A1, “SKIN-FIRMING COSMETIC COMPOSITIONS” (Elastintech, Inc., priority 2021, published 2023).

Columns and labels:
[1] = test system: human cells; details: human cells in vitro; cited from earlier work
[2] = "at levels of up to 10%"; cited from earlier work
[3] = test system: skin of a subject's left arm (elastic fibers); assay: Histology of elastin (VVG stained) punch biopsy, treated vs untreated skin; format: in vivo, human; details: 25% dimethyl isosorbide solution, topical, 24 days, vs untreated skin of same subject
Procedure: The skin of a subject's left arm was treated with a 25% dimethyl isosorbide solution of glucosyl pentagallate for 24 days.

[4] = test system: skin of a subject's left arm; assay: Histology of polyphenol-stained (ferric chloride) punch biopsy, treated vs untreated skin; format: in vivo, human; details: 25% dimethyl isosorbide solution, topical, 24 days, vs untreated skin of same subject
Procedure: The skin of a subject's left arm 2 cm^2 patch (upper under arm above elbow) was treated with a 25% dimethyl isosorbide solution of glucosyl pentagallate for 24 days. Biopsy samples of the treated skin and a similar sample of untreated skin from the same subject's right were then taken, sectioned, and stained for polyphenol (Ferric Chloride stain) and imaged with a light microscope.

Structure (SMILES): CC1=NC(C(=O)O)CCN1 (stereo not shown) [Ectoin, 1,4,5,6-tetrahydro-2-methyl-4-pyrimidinecarboxylic acid]
- cell damage from UV and visible light [1]: prevent cell damage from UV and visible light

Structure (SMILES): NCCCC(=O)O [GABA, γ-aminobutyric acid]
- improvement of skin elasticity [2]: up to 10%

Structure (SMILES): O=C(OC[C@H]1O[C@@H](OC(=O)c2cc(O)c(O)c(O)c2)[C@H](OC(=O)c2cc(O)c(O)c(O)c2)[C@@H](OC(=O)c2cc(O)c(O)c(O)c2)[C@@H]1OC(=O)c1cc(O)c(O)c(O)c1)c1cc(O)c(O)c(O)c1 [glucosyl pentagallate]
- VVG staining of elastic fibers (levels of elastin fibers) [3]: significant black staining
- polyphenol (ferric chloride) staining of the dermis, showing glucosyl pentagallate in the dermis [4]: more black staining in the dermis
